The values below come from patent US8518968B2, “Hydrazone and diacyl hydrazine compounds and methods of use” (The United States of America, as represented by the …, priority 2009, dated 2013).

pIC50, pKd: −log10 of the molar value. Where two headings read alike, the source gives them in different places.

The subject of one data set is ATF3, ATF4, NOXA. As to the kind of experiment: Immunoblot of ER stress markers, NOXA, ubiquitin and histone H2A in JEKO-1 cells. Type of data set: cell-based. The note with it: for expression level of ATF3, ATF4 and NOXA: 8 hrs.
Data set [1] deals with p97 mutants (p97ΔN, p97ΔD2). Nature of the data set: Avidin bead pull-down of p97 mutants with immobilized B-NFC. Type of data set: binding. The following applies: p97ΔN or p97ΔD2, avidin beads.
The next data set deals with 293T cells. Nature of the data set: Whole genome array gene expression in 293T cells. Type of data set: cell-based, human. The note with it: 10 μM, 10 h. As for the experimental part:
To further confirm that both EerI and 5-NA can influence p97 function in cells, the gene expression pattern of EerI-treated cells is compared to that of 5-NA-treated cells using whole genome array hybridization. […] These studies are performed in 293T cells because they are highly transfectable, making them well suited for genetic manipulation by siRNA. Cells were treated with EerI, CBU-028, or 5-NA each at 10 μM in duplicates for 10 h. Total RNA was extracted using TRIzol reagent (Invitrogen, Carlsbad, Calif.), and subsequently purified using an RNeasy MinElute Cleanup kit (QIAGEN, Valencia, Calif.). For array hybridization, RNA samples were processed and analyzed by The National Institute of Diabetes and Digestive and Kidney Diseases (NIDDK) Microarray Core Facility. The Affymetrix gene expression analysis array for the human HG-U133A—2—0 was used (Affymetrix). The microarray signals were analyzed using the Affymetrix RMA algorithm. […] To determine specific pathways, gene pathway analysis were conducted using software from Genego, Inc., using the statistical significant ANOVA gene list (p<0.05, fold change >1.5) represented on the chip. Microarray data is MIAME compliant and that the raw data has been deposited in the Gene Expression Omnibus (GEO) database (accession no. GSE23849).

The test system of data set [2] is JEKO-1 cells.
The target of data set [3] is T1, recombinant wild type p97 (Homo sapiens, UniProt P55072).
T1 construct: made in house; host or cells: E. coli
As to the kind of experiment: Surface plasmon resonance binding to recombinant p97. The note with it: SPR, 25° C., recombinant p97 purified from E. coli; read-out: estimated Kd. As for the experimental part:
The strength of EerI binding to recombinant p97 purified from E. coli was tested using surface plasma resonance (SPR). Surface plasmon resonance interaction experiments were carried out at 25° C. on a Biacore T100 system (GE healthcare). […] Briefly, the carboxymethyl group of dextran was activated with N-ethyl-N′-(3-dimethylaminopropyl)carbodiimide (EDC) and N-hydroxysuccinimide (NHS). Then, p97 in a 10 mM sodium acetate (pH 4.5) buffer was injected at a flow rate of 10 μl/min with 2 min contact time and immobilized at a level of ˜8,000 RU. Any remaining reactive sites in the flow cell were blocked by ethanolamine. The drug association and dissociation were monitored at a flow rate of […] with the analyte concentration ranging from 3.125 μM to 50 μM in a buffer containing 10 mM HEPES (pH 7.4), 150 mM NaCl, 0.005% v/v Surfactant P20. Regeneration of the chip was achieved by extended washing with the analyte buffer. SPR signal was normalized using a reference flow cell containing no p97. […] The Rmax was then calculated, and the binding relative to the Rmax from three independent experiments was averaged. […]
The affinity of CBU-028, EERI, and compound 5138380 to purified p97 is measured by surface plasmon resonance (SPR). […] Association and dissociation of the compounds are monitored at a flow rate of 20 μL/min at concentrations ranging from 1.6 μM to 100 μM. […]

In the next data set the target is p97 ATPase (Homo sapiens, UniProt P55072). As to the kind of experiment: In vitro ATPase activity of p97. It is filed as biochemical. The following applies: data not shown. As for the experimental part: To understand how EerI binding might affect p97 function, in vitro ATPase activity of p97 in the presence of EerI was measured. No effect of EerI on the p97 ATPase activity was found (data not shown).

The next data set addresses T2, membrane associated p97 (Homo sapiens, UniProt P55072).
T2 construct: endogenous in cells; host or cells: 293T cells
As to the kind of experiment: Membrane/cytosol fractionation and p97 immunoblot in 293T cells. It is filed as cell-based. The following applies: 10 μM, 6 hr, membrane and cytosol fractions. On the procedure: Cells were fractionated into membrane and cytosol fractions. Proteins extracted from these fractions were analyzed by immunoblotting with antibodies to p97, E1, and Sec61β, and ER-resident protein as shown in FIG. 2 e.
Background: In western blotting, separated proteins are transferred to a membrane and probed.

Data set [4] has as its target T3, p97 (Homo sapiens, UniProt P55072). As to the kind of experiment: Limited trypsin digestion of purified p97. The note with it: purified p97 pre-incubated with compound. As for the experimental part:
Sensitivity of p97 to limited trypsin digestion in the presence and absence of EerI was tested to determine whether binding of EerI to p97 could alter p97 conformation. The purified p97 protein (1.5 μg) was incubated at in a buffer containing 200 ng trypsin in 50 μl volume. Samples were taken out at different time points and mixed with the Laemmli buffer before SDS-PAGE and silver staining analyses.

For a further data set, the system named is TCRα-YFP. As to the kind of experiment: Stabilization of ERAD substrate TCRα-YFP in 293T cells. It is filed as cell-based. The following applies: 293T cells stably expressing TCRα-YFP, 10 μM (10 mM in method), 10 h. As for the experimental part: 293T cells stably expressing TCRα-YFP are treated with the indicated compounds ([…]) or as a control with DMSO for 10 h. Cells are lysed in RIPA buffer (50 mM Tris, pH 7.5, 1% NP40, 0.1% SDS, 0.5% sodium deoxycholate, 150 mM sodium chloride, 2 mM EDTA and a protease inhibitor cocktail). TCRα-YFP is immunoprecipitated from the cell extract using an anti-green fluorescent protein (GFP) antibody. The precipitated material is analyzed by SDS-PAGE and immunoblotting with antibodies against uUb and GFP. The whole cell extracts are also analyzed by SDS-PAGE and immunoblotting with antibodies against p. 97.

The next data set concerns GFPμ. Nature of the data set: Stabilization of soluble p97 substrate GFPμ in 293T cells. The following applies: 10 μM. It is filed as cell-based. On the procedure: The experiments are performed as described above for TCRα-YFP, except that 293 T cells stably expressing GFP are used.
In data set [5] the test system is JEKO-1 cells stably transfected with shRNAs to luciferase or NOXA. As to the kind of experiment: Effect of NOXA shRNA on cytotoxicity in JEKO-1 cells (MTT). It is filed as cell-based. The following applies: JEKO-1 shLuc vs shNoxa, 24 hours. As for the experimental part:
The effect of NOXA on cytotoxicity of CBU-028, EERI, or bortezomib is determined. FIG. 4 presents graphs comparing CBU-028, EERI, and bortezomib with respect to percent cell viability as a function of concentration, measured using JEKO-1 cells stably transfected with shRNAs to luciferase (shLuc, control, ▪) or NOXA (shNoxa, ◯, sequence: [NT]) after treatment with the compound for 24 hrs, with viability determined with MTT as described above and normalized to the untreated control.

The test system of data set [6] is primary chronic lymphocytic leukemia (CLL) cells or normal peripheral blood mononuclear cells (PBMC). As to the kind of experiment: Cytotoxic activity against primary cells (MTT). Type of data set: cell-based. The note with it: 5×10e6 cells/ml, 48 hrs. On the procedure:
The cytotoxic activity of CBU-028 or EERI against primary cells is determined as a function of concentration. Cell viability of primary chronic lymphocytic leukemia (CLL) cells or normal peripheral blood mononuclear cells (PBMC) at a concentration of 5×10e6 cells/ml is determined after treatment with CBU-028 or EERI for 48 hrs in triplicates. Viability is determined using the MTT assay, as described previously, with data normalized to the untreated control.

The subject of another data set is CLL cells. As to the kind of experiment: Synergy of CBU-028 with bortezomib against CLL cells (MTT). Type of data set: cell-based. The note with it: fixed molar relation 1:2000 (BZM:CBU-028), 48 hours. As for the experimental part:
FIG. 6. […] To test for synergy between BZM and CBU-028, CLL cells were incubated in-vitro to increasing concentrations of each compound individually as well as to a combination of both drugs. The combination was tested at a fixed molar relation of 1:2000, e.g. 4 nM BZM was combined with 8 uM CBU-028. 5×10^6 cells/mL were incubated for 48 hours and cell viability was measured with MTT. Synergy is found where the effect of the combination of the two compounds exceeds the additive effect of each compound separately. The left graph shown the result of a representative experiment (CLL—4235) across all concentrations tested. The graph on the right summarizes the data for 7 individual CLL patients.

Data set [7] has as its system JEKO-1 cells. Nature of the data set: cells. The following applies: Homo sapiens, JeKo-1, 48 h, JEKO-1 cells, incubated 2 days, MTT, four parameter logistic fit.
The target of data set [8] is T3, p97. As to the kind of experiment: Avidin bead pull-down of p97 with immobilized B-NFC. It is filed as binding. The following applies: monomeric avidin beads, biotin beads as negative control.
The test system of a further data set is heat shock protein Hsp70. As to the kind of experiment: Avidin bead pull-down of Hsp70 with immobilized B-NFC. The note with it: avidin beads. Type of data set: binding.
The target of data set [9] is N-ethylmaleimide-sensitive factor (NSF) (Homo sapiens, UniProt P46459). As to the kind of experiment: Avidin bead pull-down of NSF with immobilized B-NFC. Type of data set: binding. The following applies: avidin beads.
N-ethylmaleimide-sensitive factor (NSF), sequence (P46459 whole entry, species assumed): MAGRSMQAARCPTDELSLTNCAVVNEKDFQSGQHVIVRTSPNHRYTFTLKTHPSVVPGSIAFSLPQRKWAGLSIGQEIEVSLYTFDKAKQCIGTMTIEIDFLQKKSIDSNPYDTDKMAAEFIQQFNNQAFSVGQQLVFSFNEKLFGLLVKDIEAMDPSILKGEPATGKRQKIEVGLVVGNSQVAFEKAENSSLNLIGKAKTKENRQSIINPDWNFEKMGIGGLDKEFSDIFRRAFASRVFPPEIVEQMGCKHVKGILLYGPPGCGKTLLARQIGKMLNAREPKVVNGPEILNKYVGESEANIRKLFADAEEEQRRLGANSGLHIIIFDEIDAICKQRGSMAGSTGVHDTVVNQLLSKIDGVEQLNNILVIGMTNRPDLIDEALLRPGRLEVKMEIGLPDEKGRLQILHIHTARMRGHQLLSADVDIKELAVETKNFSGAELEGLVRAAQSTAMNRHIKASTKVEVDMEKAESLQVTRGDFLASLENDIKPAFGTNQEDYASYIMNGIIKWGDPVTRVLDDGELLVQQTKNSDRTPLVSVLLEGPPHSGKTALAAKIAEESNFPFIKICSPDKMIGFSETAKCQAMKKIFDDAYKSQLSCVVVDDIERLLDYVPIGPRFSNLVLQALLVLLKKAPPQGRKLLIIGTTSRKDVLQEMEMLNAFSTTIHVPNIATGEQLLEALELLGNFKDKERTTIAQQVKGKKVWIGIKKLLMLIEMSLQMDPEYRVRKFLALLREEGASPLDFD

T3 sequence (P55072 whole entry): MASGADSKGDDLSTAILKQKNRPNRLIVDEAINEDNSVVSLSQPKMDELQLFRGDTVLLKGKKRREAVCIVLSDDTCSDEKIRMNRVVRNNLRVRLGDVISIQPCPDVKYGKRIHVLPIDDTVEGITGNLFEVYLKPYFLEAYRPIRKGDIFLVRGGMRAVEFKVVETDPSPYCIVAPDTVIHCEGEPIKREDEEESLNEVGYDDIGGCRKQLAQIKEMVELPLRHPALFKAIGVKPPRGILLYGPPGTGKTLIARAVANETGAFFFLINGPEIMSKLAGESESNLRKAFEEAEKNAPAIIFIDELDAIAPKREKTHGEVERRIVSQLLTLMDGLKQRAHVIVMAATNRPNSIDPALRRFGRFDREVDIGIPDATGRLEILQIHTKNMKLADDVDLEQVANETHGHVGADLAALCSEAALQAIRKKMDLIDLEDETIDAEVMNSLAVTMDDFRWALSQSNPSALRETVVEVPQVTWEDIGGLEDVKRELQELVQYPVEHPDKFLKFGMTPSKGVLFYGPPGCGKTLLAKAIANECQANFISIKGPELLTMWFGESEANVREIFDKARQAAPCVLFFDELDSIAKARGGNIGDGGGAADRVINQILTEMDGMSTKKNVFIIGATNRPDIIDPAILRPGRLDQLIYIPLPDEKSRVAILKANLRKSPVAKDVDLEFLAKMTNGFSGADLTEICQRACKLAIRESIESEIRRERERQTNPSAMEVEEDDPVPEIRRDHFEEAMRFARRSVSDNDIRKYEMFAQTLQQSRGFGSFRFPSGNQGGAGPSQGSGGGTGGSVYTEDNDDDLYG
p97 mutants (p97ΔN, p97ΔD2), sequence (P55072 209-458 limits assumed, stated change not applied): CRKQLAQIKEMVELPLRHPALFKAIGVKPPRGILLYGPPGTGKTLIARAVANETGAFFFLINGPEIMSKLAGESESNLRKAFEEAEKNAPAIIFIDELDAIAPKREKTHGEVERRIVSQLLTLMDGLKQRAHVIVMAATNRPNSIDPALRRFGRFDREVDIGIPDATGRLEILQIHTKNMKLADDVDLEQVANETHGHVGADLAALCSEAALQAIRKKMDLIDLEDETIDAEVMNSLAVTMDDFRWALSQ
T2 sequence (P55072 2-806 limits assumed): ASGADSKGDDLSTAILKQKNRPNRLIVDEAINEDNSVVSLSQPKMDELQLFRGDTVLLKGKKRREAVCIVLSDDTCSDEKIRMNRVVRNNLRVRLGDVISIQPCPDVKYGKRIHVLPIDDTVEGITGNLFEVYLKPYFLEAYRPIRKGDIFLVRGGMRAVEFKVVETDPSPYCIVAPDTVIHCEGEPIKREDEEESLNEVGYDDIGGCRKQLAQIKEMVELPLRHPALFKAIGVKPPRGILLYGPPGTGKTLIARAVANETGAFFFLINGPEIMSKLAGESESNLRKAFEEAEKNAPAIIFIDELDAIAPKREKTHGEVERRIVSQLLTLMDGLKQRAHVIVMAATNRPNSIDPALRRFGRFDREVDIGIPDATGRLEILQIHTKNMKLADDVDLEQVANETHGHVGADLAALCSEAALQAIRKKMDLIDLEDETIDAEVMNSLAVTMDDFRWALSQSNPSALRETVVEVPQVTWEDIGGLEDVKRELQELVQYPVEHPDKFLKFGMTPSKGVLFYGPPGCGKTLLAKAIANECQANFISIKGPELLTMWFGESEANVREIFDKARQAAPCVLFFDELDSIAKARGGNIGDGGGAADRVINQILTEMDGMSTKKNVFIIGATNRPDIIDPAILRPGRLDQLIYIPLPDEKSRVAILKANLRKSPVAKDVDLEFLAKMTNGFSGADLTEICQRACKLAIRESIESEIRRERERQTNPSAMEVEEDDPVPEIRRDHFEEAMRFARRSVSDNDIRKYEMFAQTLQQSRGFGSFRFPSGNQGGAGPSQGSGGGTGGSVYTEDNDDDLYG
p97 ATPase, sequence (P55072 whole entry): as the sequence (P55072 whole entry) above
T1 sequence (P55072 whole entry): as above

For 5-nitrofuryl-acrolein, the “expression level of ATF3, ATF4 and NOXA” value in the data set on ATF3, ATF4, NOXA (2.5 μM) is listed as “comparable to that present after treatment with EERI”. Moreover, the “binding of p97 mutants to immobilized compound” value in data set [1] is “also bound”. For the same compound, in the data set with 293T cells, the “number of genes up- or down-regulated by at least 2-fold by both EerI and 5-NA” value is 29 genes; the “number of genes up- or down-regulated by at least 2-fold only by this compound” value was 306 genes. The “cell viability / cytotoxic activity (in words)” value with JEKO-1 cells [2] is reported as “cytotoxic activity at a concentration lower than that shown by EERI”.
For orientation: pKd means −log10 of the Kd, conventionally taken in molar units. By pIC50 is commonly meant the negative decadic logarithm of the IC50, by convention in mol/L. The low end stands for a high IC50, the high end for a low IC50. On to `CC1(C)C(N(O)C(=O)Nc2ccc(C(F)(F)F)cc2)N(c2ccc(Cl)cc2)C(=O)N1CC(=O)N/N=C/C=C/c1ccc([N+](=O)[O-])o1` (stereo not shown) [CBU-003], for which the pKd in data set [3] was 5.00 to 5.30. For the same compound, the “effect on p97 ATPase activity” value on p97 ATPase is reported as “No effect”. Further, in the data set with ATF3, ATF4, NOXA (10 μM), the “expression level of ATF3, ATF4 and NOXA” value is on record as “comparable to that present after treatment with EERI”. Also, the “location of slow migrating (oligomerized) p97 species induced by compound” value at membrane associated p97 was “primarily in the membrane fraction, not in the cytosol fraction”. In addition, at p97 [4], the “sensitivity of p97 to limited trypsin digestion” value is on record as “caused a delay in the proteolysis of two p97 fragments by trypsin”. In the data set on 293T cells, the “number of genes up- or down-regulated by at least 2-fold by both EerI and 5-NA” value was 29 genes; the “number of genes up- or down-regulated by at least 2-fold only by this compound” value turned out to be 25 genes. Besides, the “stabilization of ERAD substrate TCRα-YFP” value in the data set with TCRα-YFP is on record as “stabilize the ERAD substrate TCRα-YFP in polyubiquitinated forms”. In addition, in the data set with GFPμ, the “stabilization of soluble p97 substrate GFPμ” value is on record as “stabilize the soluble p97 substrate GFPμ in polyubiquitinated forms”. In addition, the “requirement of NOXA for cytotoxicity” value in data set [5] was “Noxa is equally required”. Moreover, in [6], the “sensitivity of PBMC compared with CLL cells” value is given as “PBMC are less sensitive”. For the same compound, the pIC50 in the data set with JEKO-1 cells [2] (JEKO-1 cells, incubated 2 days, MTT, four parameter logistic fit) was 5.46.
Regarding `O=C(N/N=C/C=C/c1ccc([N+](=O)[O-])o1)c1cc2ccccc2cc1O` [CBU-028, (E)-3-hydroxy-N′-((E)-3-(5-nitrofuran-2-yl)allylidene)-2-naphthohydrazide], in the data set with ATF3, ATF4, NOXA (10 μM, time course), the NOXA protein level result was “upregulates NOXA protein level”; the “expression of ER stress markers ATF3 and ATF4” value is “induces expression of the ER stress markers ATF3 and ATF4”; the polyubiquitinated proteins result is on record as “causes accumulation of polyubiquitinated proteins”; the “ubiquitinated histone H2A” value was “downregulates ubiquitinated histone H2A”. The “stabilization of ERAD substrate TCRα-YFP” value in the data set with TCRα-YFP is “stabilize the ERAD substrate TCRα-YFP in polyubiquitinated forms”. In addition, in the data set on GFPμ, the “stabilization of soluble p97 substrate GFPμ” value is “stabilize the soluble p97 substrate GFPμ in polyubiquitinated forms”. Also, in data set [5], the “requirement of NOXA for cytotoxicity” value is given as “Noxa is equally required”. In addition, the “sensitivity of PBMC compared with CLL cells” value in [6] is on record as “PBMC are less sensitive”. The synergy with bortezomib entry in the data set with CLL cells is reported as “Synergizes with Bortezomib”. Moreover, the pIC50 with JEKO-1 cells [7] was 5.52.
Turning to `O=C(CCCC[C@@H]1SCC2NC(=O)NC21)N/N=C/C=C/c1ccc([N+](=O)[O-])o1` (stereo partly drawn) [CBU-032, (E)-N′-((E)-3-(5-nitrofuran-2-yl)allylidene)-5-((4S)-2-oxohexahydro-1H-thieno[3,4-d]imidazol-4-yl)pentanehydrazide], on p97 [8], the “precipitation of p97 by immobilized compound” value is given as “consistently precipitated more p97, than biotin”. Besides, the “binding of Hsp70 to immobilized compound” value in the data set with heat shock protein Hsp70 is “neither the heat shock protein Hsp70, nor the homologous AAA ATPase, N-ethylmaleimide-sensitive factor (NSF), showed significant binding”. In data set [9], the “binding of NSF to immobilized compound” value is recorded as “neither the heat shock protein Hsp70, nor the homologous AAA ATPase, N-ethylmaleimide-sensitive factor (NSF), showed significant binding”. The compound also gave a pIC50 in the data set on JEKO-1 cells [7] of 4.60.
